Assay results from ChEMBL document CHEMBL5154709, “Tetrazole derivatives bearing benzodiazepine moiety-synthesis and action mode against virulence of Candida albicans” (Eur J Med Chem, 2022).
≈ marks a conversion by molar mass, not a printed value.

Experiments:
Candida albicans [1] = assay: Antifungal activity against Candida albicans SC5314 assessed as inhibition of fungal growth at 0.5 ug/ml incubated for 48 hrs by M27-A3 based microdilution method relative to control; type: functional
Candida albicans [2] = assay: Antifungal activity against Candida albicans SC5314 assessed as inhibition of fungal growth at 0.0625 ug/ml incubated for 48 hrs by M27-A3 based microdilution method relative to control; type: functional
Candida albicans [3] = assay: Antifungal activity against Candida albicans SC5314 assessed as inhibition of fungal growth at 0.0625 ug/ml incubated for 18 hrs by M27-A3 based microdilution method relative to control; type: functional
Candida albicans [4] = assay: Antifungal activity against Candida albicans SC5314 assessed as inhibition of fungal growth at 16 ug/ml incubated for 48 hrs by M27-A3 based microdilution method relative to control; type: functional
Candida albicans [5] = assay: Antifungal activity against Candida albicans SC5314 assessed as inhibition of fungal growth at 1 ug/ml incubated for 18 hrs by M27-A3 based microdilution method relative to control; type: functional
Candida albicans [6] = assay: Antifungal activity against Candida albicans SC5314 assessed as inhibition of fungal growth at 0.25 ug/ml incubated for 48 hrs by M27-A3 based microdilution method relative to control; type: functional
Candida albicans [7] = assay: Antifungal activity against Candida albicans SC5314 assessed as inhibition of fungal growth at 4 ug/ml incubated for 48 hrs by M27-A3 based microdilution method relative to control; type: functional
Candida albicans [8] = assay: Antifungal activity against Candida albicans SC5314 assessed as inhibition of fungal growth at 4 ug/ml incubated for 18 hrs by M27-A3 based microdilution method relative to control; type: functional
Candida albicans [9] = assay: Antifungal activity against Candida albicans SC5314 assessed as inhibition of fungal growth at 0.125 ug/ml incubated for 18 hrs by M27-A3 based microdilution method relative to control; type: functional
Candida albicans [10] = assay: Antifungal activity against Candida albicans SC5314 assessed as inhibition of fungal growth at 8 ug/ml incubated for 48 hrs by M27-A3 based microdilution method relative to control; type: functional
Candida albicans [11] = assay: Antifungal activity against Candida albicans SC5314 assessed as inhibition of fungal growth at 0.125 ug/ml incubated for 48 hrs by M27-A3 based microdilution method relative to control; type: functional
Candida albicans [12] = assay: Antifungal activity against Candida albicans SC5314 assessed as inhibition of fungal growth at 0.03125 ug/ml incubated for 48 hrs by M27-A3 based microdilution method relative to control; type: functional
Candida albicans [13] = assay: Antifungal activity against Candida albicans SC5314 assessed as inhibition of fungal growth at 0.03125 ug/ml incubated for 18 hrs by M27-A3 based microdilution method relative to control; type: functional
Candida albicans [14] = assay: Antifungal activity against Candida albicans SC5314 assessed as inhibition of fungal growth at 2 ug/ml incubated for 48 hrs by M27-A3 based microdilution method relative to control; type: functional
Candida albicans [15] = assay: Antifungal activity against Candida albicans SC5314 assessed as inhibition of fungal growth at 8 ug/ml incubated for 18 hrs by M27-A3 based microdilution method relative to control; type: functional
Candida albicans [16] = assay: Antifungal activity against Candida albicans SC5314 assessed as inhibition of fungal growth at 1 ug/ml incubated for 48 hrs by M27-A3 based microdilution method relative to control; type: functional
Candida albicans [17] = assay: Antifungal activity against Candida albicans SC5314 assessed as inhibition of fungal growth at 16 ug/ml incubated for 18 hrs by M27-A3 based microdilution method relative to control; type: functional
Candida albicans [18] = assay: Antifungal activity against Candida albicans SC5314 assessed as inhibition of fungal growth at 0.25 ug/ml incubated for 18 hrs by M27-A3 based microdilution method relative to control; type: functional
Candida albicans [19] = assay: Antifungal activity against Candida albicans SC5314 assessed as inhibition of fungal growth at 2 ug/ml incubated for 18 hrs by M27-A3 based microdilution method relative to control; type: functional
Candida albicans [20] = assay: Antifungal activity against Candida albicans SC5314 assessed as inhibition of fungal growth at 0.5 ug/ml incubated for 18 hrs by M27-A3 based microdilution method relative to control; type: functional
Candida albicans [21] = assay: Antifungal activity against Candida albicans assessed as inhibition of fungal growth measured after 48 hrs by M27-A3 based broth microdilution; type: functional
[22] = Toxicity in Galleria mellonella larvae assessed as melanization of larvae at 0.23 ug/ml measured every 24 hrs upto 5 days relative to control; settings: 120 h, at 0.23 µg/mL, time < 5 day
Candida albicans [23] = assay: Antifungal activity against Candida albicans assessed as inhibition of fungal growth measured after 48 hrs in presence of exogenous ergosterol by M27-A3 based broth microdilution; type: functional

Row | Compound | inhibition at 0.5 µg/mL (Candida albicans [1]) [%] | inhibition at 0.0625 µg/mL (Candida albicans [2]) [%] | inhibition at 0.0625 µg/mL (Candida albicans [3]) [%] | inhibition at 16 µg/mL (Candida albicans [4]) [%] | inhibition at 1 µg/mL (Candida albicans [5]) [%] | inhibition at 0.25 µg/mL (Candida albicans [6]) [%] | inhibition at 4 µg/mL (Candida albicans [7]) [%] | inhibition at 4 µg/mL (Candida albicans [8]) [%] | inhibition at 0.125 µg/mL (Candida albicans [9]) [%] | inhibition at 8 µg/mL (Candida albicans [10]) [%] | inhibition at 0.125 µg/mL (Candida albicans [11]) [%] | inhibition at 0.03125 µg/mL (Candida albicans [12]) [%] | inhibition at 0.03125 µg/mL (Candida albicans [13]) [%] | inhibition at 2 µg/mL (Candida albicans [14]) [%] | inhibition at 8 µg/mL (Candida albicans [15]) [%] | inhibition at 1 µg/mL (Candida albicans [16]) [%] | inhibition at 16 µg/mL (Candida albicans [17]) [%] | inhibition at 0.25 µg/mL (Candida albicans [18]) [%] | inhibition at 2 µg/mL (Candida albicans [19]) [%] | inhibition at 0.5 µg/mL (Candida albicans [20]) [%] | other results
1 | Cc1ccc(-c2nnn(CCCN3C(=O)CN=C(c4ccccc4Br)c4cc(F)ccc43)n2)cc1 | 95.8 | 96.5 | 99.2 | 95.4 | 93.8 | 98.2 | 95.4 | 94.7 | 98.5 | 97.6 | 97.2 | 100 | 100 | 96.4 | 100 | 95 | 100 | 97.8 | 98.1 | 92.3 | 
2 | O=C1CN=C(c2ccccc2Br)c2cc(F)ccc2N1 | 99.2 | 98.7 | 98.7 | 99.1 | 99 | 99.1 | 99.2 | 99.2 | 99.1 | 99.1 | 99.1 | 99.1 | 99.1 | 99.1 | 99.3 | 99.2 | 98.9 | 98.9 | 99 | 99.2 | 
3 | CCC(C)n1ncn(-c2ccc(N3CCN(c4ccc(OCC5COC(Cn6cncn6)(c6ccc(Cl)cc6Cl)O5)cc4)CC3)cc2)c1=O (stereo not drawn) [ITRACONAZOLE] |  |  |  |  |  |  |  |  |  |  |  |  |  |  |  |  |  |  |  |  | MIC (Candida albicans [21]): 0.32 µg/mL (≈ 0.453 µM); Activity [22]: 13%; MIC (Candida albicans [23]): 0.5 µg/mL
4 | O=C1CN=C(c2ccccc2Br)c2cc(F)ccc2N1CCCn1nnc(-c2ccccc2)n1 | 99.3 | 98.6 | 99.4 | 98.4 | 99.4 | 99 | 98.9 | 99.6 | 99.8 | 98.5 | 98.4 | 100 | 100 | 98.4 | 98.4 | 98.9 | 98.5 | 99.8 | 99.6 | 99.5 | 
5 | COc1ccc(-n2nnnc2SCCCN2C(=O)CN=C(c3ccccc3Br)c3cc(F)ccc32)cc1 | 98.8 | 98.8 | 98.7 | 98.5 | 98.8 | 98.6 | 98.8 | 98.8 | 98.8 | 98.7 | 98.9 | 98.8 | 98.8 | 98.8 | 98.6 | 98.9 | 98.1 | 98.5 | 98.7 | 98.7 | 
6 | ClCCCSc1nnnn1-c1ccccc1 | 98.4 | 98.8 | 98.6 | 98.9 | 98.5 | 98.9 | 98.9 | 98.8 | 98.6 | 98.8 | 98.8 | 98.9 | 98.8 | 98.6 | 98.7 | 98.6 | 98.7 | 98.8 | 98.5 | 98.3 | 
7 | O=C1CN=C(c2ccccc2Br)c2cc(F)ccc2N1CCCSc1nnnn1-c1ccccc1 | 99.8 | 99.7 | 99.7 | 99.8 | 99.8 | 99.7 | 99.8 | 99.9 | 99.9 | 99.8 | 99.8 | 99.9 | 100 | 99.7 | 99.9 | 99.7 | 99.8 | 99.8 | 99.8 | 99.9 | 
8 | COc1ccc(-n2nnnc2SCCCCl)cc1 | 99.7 | 99.8 | 99.9 | 99.8 | 99.9 | 99.9 | 99.8 | 99.8 | 99.9 | 99.8 | 99.9 | 99.7 | 99.8 | 99.8 | 99.8 | 99.8 | 99.9 | 100 | 100 | 99.9 | 
